Measurements: patent publication US20260265271A1, “Cereblon Ligands and Uses Thereof” (REGENTS OF THE UNIVERSITY OF MICHIGAN, priority 2022, published 2026)
Where two headings read alike, the source gives them in different places.

Target: T1, IKZF2 (Homo sapiens, UniProt Q96SW2+Q9UKS7)
T1 construct: host or cells: Jurkat-IKZF2-HiBiT
Assay: IKZF2 HiBiT degradation assay (Jurkat-IKZF2-HiBiT)
Format: cell-based
Details: for DC50: read-out: IKZF2 degradation DC50; for Dmax: read-out: IKZF2 degradation Dmax (%)
Description: Degradation of IKZF2 protein was determined by IKZF2 HiBiT assay using the Jurkat-IKZF2-HiBiT (Promega) cell line. […] Compounds were serially diluted in culture medium, and 20 μl of the diluted compounds were added to the appropriate wells of the plate. After the addition of compounds, the cells were incubated at 37° C. in an atmosphere of 5% CO2 for 24 hours. At the end of treatment, 40 ul of Nano-Glo HiBiT Lytic Detection Reagent (Promega) was added to each well, and then the plates were incubated at room temperature for 10-20 minutes. The luminescent signal was measured using a CALRIOstar plate reader (BMG Labtech). The readings were normalized to the DMSO-treated cells and the IC50 was calculated by nonlinear regression (four parameters sigmoid fitted with variable slope, least squares fit, and no constraint) analysis using the GraphPad Prism 8 software.

[1] = Jurkat-IKZF2-HiBiT cells, 24 hours

T1 sequence (Q9UKS7 whole entry): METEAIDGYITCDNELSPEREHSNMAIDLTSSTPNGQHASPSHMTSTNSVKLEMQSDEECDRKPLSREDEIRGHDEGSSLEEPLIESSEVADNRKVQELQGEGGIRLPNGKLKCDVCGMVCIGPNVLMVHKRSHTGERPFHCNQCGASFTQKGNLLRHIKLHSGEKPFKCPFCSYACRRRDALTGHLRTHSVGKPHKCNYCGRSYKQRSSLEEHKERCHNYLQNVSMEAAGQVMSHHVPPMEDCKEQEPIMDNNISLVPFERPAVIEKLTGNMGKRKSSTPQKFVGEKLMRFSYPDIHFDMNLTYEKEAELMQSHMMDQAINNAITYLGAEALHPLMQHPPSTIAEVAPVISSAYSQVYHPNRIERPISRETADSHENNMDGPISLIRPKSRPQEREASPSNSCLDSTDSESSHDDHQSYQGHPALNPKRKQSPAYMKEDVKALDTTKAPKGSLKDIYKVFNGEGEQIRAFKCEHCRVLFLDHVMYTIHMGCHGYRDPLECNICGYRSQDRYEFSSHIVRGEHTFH
T1 sequence (Q96SW2 whole entry): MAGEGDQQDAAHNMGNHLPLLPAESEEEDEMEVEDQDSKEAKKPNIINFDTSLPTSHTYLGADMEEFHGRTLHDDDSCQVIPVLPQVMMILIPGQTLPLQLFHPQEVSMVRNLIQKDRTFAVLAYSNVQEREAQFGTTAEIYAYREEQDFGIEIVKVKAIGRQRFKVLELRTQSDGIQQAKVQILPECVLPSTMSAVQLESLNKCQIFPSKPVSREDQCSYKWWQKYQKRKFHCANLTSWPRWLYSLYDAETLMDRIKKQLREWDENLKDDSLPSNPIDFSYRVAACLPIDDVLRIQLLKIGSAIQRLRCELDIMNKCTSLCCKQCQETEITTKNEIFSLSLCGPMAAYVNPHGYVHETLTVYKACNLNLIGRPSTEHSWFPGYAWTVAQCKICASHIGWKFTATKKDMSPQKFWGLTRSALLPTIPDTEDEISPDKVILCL
T1 sequence (Q16531 2-1140 partner limits assumed): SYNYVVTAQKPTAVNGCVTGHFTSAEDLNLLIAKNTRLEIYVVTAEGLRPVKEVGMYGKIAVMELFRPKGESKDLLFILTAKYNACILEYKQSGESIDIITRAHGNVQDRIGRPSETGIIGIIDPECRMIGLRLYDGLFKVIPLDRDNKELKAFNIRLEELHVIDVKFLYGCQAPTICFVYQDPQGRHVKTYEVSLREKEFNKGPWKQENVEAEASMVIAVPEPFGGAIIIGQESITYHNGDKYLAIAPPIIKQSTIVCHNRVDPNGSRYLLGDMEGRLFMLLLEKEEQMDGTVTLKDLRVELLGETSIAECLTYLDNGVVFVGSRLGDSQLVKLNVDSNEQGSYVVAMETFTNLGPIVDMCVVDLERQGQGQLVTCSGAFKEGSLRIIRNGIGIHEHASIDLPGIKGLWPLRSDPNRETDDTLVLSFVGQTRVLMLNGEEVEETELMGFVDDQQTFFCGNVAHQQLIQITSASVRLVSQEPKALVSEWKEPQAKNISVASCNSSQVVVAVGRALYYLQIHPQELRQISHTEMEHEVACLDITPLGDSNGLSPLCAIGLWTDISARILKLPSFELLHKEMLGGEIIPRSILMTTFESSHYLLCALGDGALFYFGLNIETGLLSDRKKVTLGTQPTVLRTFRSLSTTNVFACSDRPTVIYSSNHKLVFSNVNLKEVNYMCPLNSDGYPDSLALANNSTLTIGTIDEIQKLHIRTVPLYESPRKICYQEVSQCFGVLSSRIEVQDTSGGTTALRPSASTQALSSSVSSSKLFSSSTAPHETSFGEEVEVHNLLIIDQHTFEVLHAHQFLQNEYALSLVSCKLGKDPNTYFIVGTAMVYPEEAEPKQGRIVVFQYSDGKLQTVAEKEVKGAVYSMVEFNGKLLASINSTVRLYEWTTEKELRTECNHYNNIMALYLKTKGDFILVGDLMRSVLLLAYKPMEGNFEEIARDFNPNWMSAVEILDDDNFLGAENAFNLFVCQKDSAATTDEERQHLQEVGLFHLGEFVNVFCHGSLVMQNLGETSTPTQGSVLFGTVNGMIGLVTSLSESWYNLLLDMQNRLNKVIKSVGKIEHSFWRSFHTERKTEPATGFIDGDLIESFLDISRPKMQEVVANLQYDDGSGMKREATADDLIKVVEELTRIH

Row | SMILES | DC50 [1] [nM] | Dmax [%] | Dmax [1] [%]
1 | Cc1ccc(C(=O)Nc2cccc(CN3CCN4c5cc6c(cc5OC[C@@H]4C3)C(=O)N([C@H]3CCC(=O)NC3=O)C6)c2)cc1 [Compound C23, N-(3-(((S)-9-((S)-2,6-dioxopiperidin-3-yl)-8-oxo-1,2,4a,5,9,10-hexahydro-8H-pyrazino[1′,2′:4,5][1,4]oxazino[2,3-f]isoindol-3(4H)-yl)methyl)phenyl)-4-methylbenzamide] | 18 | 77 | –
2 | O=C1CCC(N2Cc3cc4c(cc3C2=O)OC[C@@H]2CN(CC3CCCC3)CCN42)C(=O)N1 (stereo partly drawn) [Compound C4, 3-((S)-3-(cyclopentylmethyl)-8-oxo-1,2,3,4,4a,5,8,10-octahydro-9H-pyrazino[1′,2′:4,5][1,4]oxazino[2,3-f]isoindol-9-yl)piperidine-2,6-dione] | 430 | 61 | –
3 | O=C1CCC(N2Cc3cc(C4CCN(Cc5ccccc5)CC4)ccc3C2=O)C(=O)N1 (stereo not shown) [DKY709] | 62 | – | 67
4 | COc1ccc(C(=O)Nc2cccc(CN3CCN4c5cc6c(cc5OC[C@@H]4C3)C(=O)N([C@H]3CCC(=O)NC3=O)C6)c2)cc1 [Compound C21, N-(3-(((S)-9-((S)-2,6-dioxopiperidin-3-yl)-8-oxo-1,2,4a,5,9,10-hexahydro-8H-pyrazino[1′,2′:4,5][1,4]oxazino[2,3-f]isoindol-3(4H)-yl)methyl)phenyl)-4-methoxybenzamide] | 9 | 85 | –
5 | COc1ccc(C(=O)Nc2cccc(CN3CCN4c5cc6c(cc5OC[C@H]4C3)C(=O)N(C3CCC(=O)NC3=O)C6)c2)cc1 (stereo partly drawn) [Compound C22, N-(3-(((4aR)-9-(2,6-dioxopiperidin-3-yl)-8-oxo-1,2,4a,5,9,10-hexahydro-8H-pyrazino[1′,2′:4,5][1,4]oxazino[2,3-f]isoindol-3(4H)-yl)methyl)phenyl)-4-methoxybenzamide] | > 1000 | 44 | –
6 | O=C1CC[C@H](N2Cc3cc4c(cc3C2=O)OC[C@@H]2CN(Cc3cccc(NS(=O)(=O)c5ccccc5)c3)CCN42)C(=O)N1 [Compound C28, N-(3-(((S)-9-((S)-2,6-dioxopiperidin-3-yl)-8-oxo-1,2,4a,5,9,10-hexahydro-8H-pyrazino[1′,2′:4,5][1,4]oxazino[2,3-f]isoindol-3(4H)-yl)methyl)phenyl)benzenesulfonamide] | > 1000 | 11 | –
7 | O=C1CCC(N2Cc3cc4c(cc3C2=O)OC[C@@H]2CN(Cc3ccccc3)CCN42)C(=O)N1 (stereo partly drawn) [Compound C1, 3-((S)-3-benzyl-8-oxo-1,2,3,4,4a,5,8,10-octahydro-9H-pyrazino[1′,2′:4,5][1,4]oxazino[2,3-f]isoindol-9-yl)piperidine-2,6-dione] | > 2000 | 27 | –
8 | CC1(C)CCC(CN2CCN3c4cc5c(cc4OC[C@@H]3C2)C(=O)N([C@H]2CCC(=O)NC2=O)C5)CC1 [Compound C34, (S)-3-((S)-3-((4,4-dimethylcyclohexyl)methyl)-8-oxo-1,2,3,4,4a,5,8,10-octahydro-9H-pyrazino[1′,2′:4,5][1,4]oxazino[2,3-f]isoindol-9-yl)piperidine-2,6-dione] | 414 | 68 | –
9 | O=C1CCC(N2Cc3cc4c(cc3C2=O)OC[C@@H]2CN(CC3CCN(c5ccccc5)CC3)CCN42)C(=O)N1 (stereo partly drawn) [Compound C7, 3-((S)-8-oxo-3-((1-phenylpiperidin-4-yl)methyl)-1,2,3,4,4a,5,8,10-octahydro-9H-pyrazino[1′,2′:4,5][1,4]oxazino[2,3-f]isoindol-9-yl)piperidine-2,6-dione] | 320 | 50 | –
10 | C[C@H]1CC[C@H](CN2CCN3c4cc5c(cc4OC[C@@H]3C2)C(=O)N([C@H]2CCC(=O)NC2=O)C5)CC1 [Compound C33, (S)-3-((S)-3-(((1r,4S)-4-methylcyclohexyl)methyl)-8-oxo-1,2,3,4,4a,5,8,10-octahydro-9H-pyrazino[1′,2′:4,5][1,4]oxazino[2,3-f]isoindol-9-yl)piperidine-2,6-dione] | 515 | 67 | –
11 | CC(=O)N1CC2(CCC(CN3CCN4c5cc6c(cc5OC[C@@H]4C3)C(=O)N(C3CCC(=O)NC3=O)C6)CC2)C1 (stereo partly drawn) [Compound C6, 3-((S)-3-((2-acetyl-2-azaspiro[3.5]nonan-7-yl)methyl)-8-oxo-1,2,3,4,4a,5,8,10-octahydro-9H-pyrazino[1′,2′:4,5][1,4]oxazino[2,3-f]isoindol-9-yl)piperidine-2,6-dione] | 330 | 62 | –
12 | O=C1CC[C@H](N2Cc3cc4c(cc3C2=O)OC[C@@H]2CN(CCC3CCCCC3)CCN42)C(=O)N1 [Compound C32, (S)-3-((S)-3-(2-cyclohexylethyl)-8-oxo-1,2,3,4,4a,5,8,10-octahydro-9H-pyrazino[1′,2′:4,5][1,4]oxazino[2,3-f]isoindol-9-yl)piperidine-2,6-dione] | 324 | 71 | –
13 | CC(C)(C)OC(=O)N1CCC2(CCC(CN3CCN4c5cc6c(cc5OC[C@@H]4C3)C(=O)N([C@H]3CCC(=O)NC3=O)C6)CC2)CC1 [Compound C38, tert-butyl 9-(((S)-9-((S)-2,6-dioxopiperidin-3-yl)-8-oxo-1,2,4a,5,9,10-hexahydro-8H-pyrazino[1′,2′:4,5][1,4]oxazino[2,3-f]isoindol-3(4H)-yl)methyl)-3-azaspiro[5.5]undecane-3-carboxylate] | 424 | 57 | –
14 | CCCN1CCN2c3cc4c(cc3OC[C@@H]2C1)C(=O)N(C1CCC(=O)NC1=O)C4 (stereo partly drawn) [Compound C3, 3-((S)-8-oxo-3-385.21propyl-1,2,3,4,4a,5,8,10-octahydro-9H-pyrazino[1′,2′:4,5][1,4]oxazino[2,3-f]isoindol-9-yl)piperidine-2,6-dione] | > 2000 | 58 | –
15 | CC(=O)N1CCC(CCN2CCN3c4cc5c(cc4OC[C@@H]3C2)C(=O)N(C2CCC(=O)NC2=O)C5)CC1 (stereo partly drawn) [Compound C5, 3-((S)-3-(2-(1-acetylpiperidin-4-yl)ethyl)-8-oxo-1,2,3,4,4a,5,8,10-octahydro-9H-pyrazino[1′,2′:4,5][1,4]oxazino[2,3-f]isoindol-9-yl)piperidine-2,6-dione] | > 2000 | 38 | –
16 | Cn1cc(-c2cccc(CN3CCN4c5cc6c(cc5OC[C@@H]4C3)C(=O)N([C@H]3CCC(=O)NC3=O)C6)c2)cn1 [Compound C20, (S)-3-((S)-3-(3-(1-methyl-1H-pyrazol-4-yl)benzyl)-8-oxo-1,2,3,4,4a,5,8,10-octahydro-9H-pyrazino[1′,2′:4,5][1,4]oxazino[2,3-f]isoindol-9-yl)piperidine-2,6-dione] | > 10000 | 27 | –
17 | O=C1CCC(N2Cc3cc4c(cc3C2=O)OC[C@@H]2CN(CC3CCCCC3)CCN42)C(=O)N1 (stereo partly drawn) [Compound C2, 3-((S)-3-(cyclohexylmethyl)-8-oxo-1,2,3,4,4a,5,8,10-octahydro-9H-pyrazino[1′,2′:4,5][1,4]oxazino[2,3-f]isoindol-9-yl)piperidine-2,6-dione] | 1400 | 56 | –
18 | O=C1CC[C@H](N2Cc3cc4c(cc3C2=O)OC[C@@H]2CN(Cc3cccc(NC(=O)c5ccccc5Cl)c3)CCN42)C(=O)N1 [Compound C25, 2-chloro-N-(3-(((S)-9-((S)-2,6-dioxopiperidin-3-yl)-8-oxo-1,2,4a,5,9,10-hexahydro-8H-pyrazino[1′,2′:4,5][1,4]oxazino[2,3-f]isoindol-3(4H)-yl)methyl)phenyl)benzamide] | > 1000 | 45 | –
19 | O=C1CC[C@H](N2Cc3cc4c(cc3C2=O)OC[C@@H]2CN(CC3CCC5(CC3)COC5)CCN42)C(=O)N1 [Compound C35, (S)-3-((S)-3-((2-oxaspiro[3.5]nonan-7-yl)methyl)-8-oxo-1,2,3,4,4a,5,8,10-octahydro-9H-pyrazino[1′,2′:4,5][1,4]oxazino[2,3-f]isoindol-9-yl)piperidine-2,6-dione] | 933 | 66 | –
20 | COc1ccc(C(=O)N(C)c2cccc(CN3CCN4c5cc6c(cc5OC[C@@H]4C3)C(=O)N([C@H]3CCC(=O)NC3=O)C6)c2)cc1 [Compound C27, N-(3-(((S)-9-((S)-2,6-dioxopiperidin-3-yl)-8-oxo-1,2,4a,5,9,10-hexahydro-8H-pyrazino[1′,2′:4,5][1,4]oxazino[2,3-f]isoindol-3(4H)-yl)methyl)phenyl)-4-methoxy-N-methylbenzamide] | > 10000 | 21 | –
21 | O=C1CC[C@H](N2Cc3cc4c(cc3C2=O)OC[C@@H]2CN(CC3CC5CCC3CC5)CCN42)C(=O)N1 (stereo partly drawn) [Compound C37, (3S)-3-((4aS)-3-(bicyclo[2.2.2]octan-2-ylmethyl)-8-oxo-1,2,3,4,4a,5,8,10-octahydro-9H-pyrazino[1′,2′:4,5][1,4]oxazino[2,3-f]isoindol-9-yl)piperidine-2,6-dione] | 318 | 69 | –
22 | CC(=O)Nc1cccc(CN2CCN3c4cc5c(cc4OC[C@@H]3C2)C(=O)N([C@H]2CCC(=O)NC2=O)C5)c1 [Compound C26, N-(3-(((S)-9-((S)-2,6-dioxopiperidin-3-yl)-8-oxo-1,2,4a,5,9,10-hexahydro-8H-pyrazino[1′,2′:4,5][1,4]oxazino[2,3-f]isoindol-3(4H)-yl)methyl)phenyl)acetamide] | > 1000 | 33 | –
23 | O=C1CC[C@H](N2Cc3cc4c(cc3C2=O)OC[C@@H]2CN(CC3CCCC3)CCN42)C(=O)N1 [Compound C29, (S)-3-((S)-3-(cyclopentylmethyl)-8-oxo-1,2,3,4a,5,8,10-octahydro-9H-pyrazino[1′,2′:4,5][1,4]oxazino[2,3-f]isoindol-9-yl)piperidine-2,6-dione] | 402 | 61 | –
